Laboratory results reported in ChEMBL document CHEMBL3390848, “Affinity selection and sequence-activity relationships of HIV-1 membrane fusion inhibitors directed at the drug-resistant variants” (Medchemcomm, 2010).
Residues, ends and D or L forms follow the SMILES beside them.

What was measured:
[1] = system: Human immunodeficiency virus 1; assay: Binding affinity to HIV1 His-tagged N-terminal heptad repeat of envelope glycoprotein gp41 assessed as recovery of N36-drug complex at 1 uM after 2 hrs by LC-MS analysis
[2] = system: Human immunodeficiency virus 1; assay: Binding affinity to HIV1 His-tagged N-terminal heptad repeat of envelope glycoprotein gp41 assessed as recovery of N36-drug complex at 10 uM after 2 hrs by LC-MS analysis
[3] = system: Human immunodeficiency virus 1; assay: Binding affinity to HIV1 His-tagged N-terminal heptad repeat of envelope glycoprotein gp41 assessed as recovery of N36-drug complex at 0.6 uM after 2 hrs by LC-MS analysis
[4] = system: Human immunodeficiency virus 1; assay: Antiviral activity against HIV1 NL4-3 harboring gp41 D36G mutant infected in human HeLa cells expressing CD4-LTR-beta-gal assessed as inhibition of viral replication after 48 hrs by MAGI assay; type: functional, organism-based
[5] = system: Human immunodeficiency virus 1; assay: Binding affinity to HIV1 His-tagged N-terminal heptad repeat of envelope glycoprotein gp41 assessed as recovery of N36-drug complex at 6 uM after 2 hrs by LC-MS analysis
[6] = system: Human immunodeficiency virus 1; assay: Thermal stability of HIV1 envelope glycoprotein gp41 His-tagged N-terminal heptad repeat N36-drug complex assessed as thermal unfolding transition state by measuring molar ellipticity at 4 to 90 degC by circular dichroic spectra analysis
[7] = system: Human immunodeficiency virus 1; assay: Binding affinity to HIV1 His-tagged N-terminal heptad repeat of envelope glycoprotein gp41 assessed as recovery of N36-drug complex after 2 hrs by LC-MS analysis; design: concentration or dose not given beside the values

With CC[C@H](C)[C@H](NC(=O)[C@H](CCCCN)NC(=O)[C@H](CCCCN)NC(=O)[C@H](CC(=O)O)NC(=O)[C@H](Cc1c[nH]c2ccccc12)NC(=O)[C@H](CCC(=O)O)NC(=O)[C@H](CCC(=O)O)NC(=O)[C@H](Cc1c[nH]c2ccccc12)NC(C)=O)C(=O)N[C@@H](CCC(=O)O)C(=O)N[C@@H](CCC(=O)O)C(=O)N[C@@H](Cc1ccc(O)cc1)C(=O)N[C@H](C(=O)N[C@@H](CCCCN)C(=O)N[C@@H](CCCCN)C(=O)N[C@H](C(=O)N[C@@H](CCC(=O)O)C(=O)N[C@@H](CCC(=O)O)C(=O)N[C@@H](CC(C)C)C(=O)N[C@H](C(=O)N[C@@H](CCCCN)C(=O)N[C@@H](CCCCN)C(=O)N[C@H](C(=O)N[C@@H](CCC(=O)O)C(=O)N[C@@H](CCC(=O)O)C(=O)N[C@@H](CCC(N)=O)C(=O)N[C@@H](CCC(N)=O)C(=O)N[C@@H](CCCCN)C(=O)N[C@@H](CCCCN)C(=O)N[C@@H](CC(N)=O)C(=O)N[C@@H](CCC(=O)O)C(=O)N[C@@H](CCC(=O)O)C(=O)N[C@@H](CCC(=O)O)C(=O)N[C@@H](CC(C)C)C(=O)N[C@@H](CCCCN)C(=O)N[C@@H](CCCCN)C(N)=O)C(C)C)[C@@H](C)CC)[C@@H](C)CC)[C@@H](C)O (Ac-WEEWDKKIEEYTKKIEELIKKVEEQQKKNEEELKK-NH2) the Activity [1] was 12.1%, the Activity [2] was 2.8% and the Activity [3] was 7%. For the same molecule, the EC50 [4] was 1.9 nM, the Activity [5] was 6% and the Tm [6] was 79.9 °C.
For CC[C@H](C)[C@H](NC(=O)[C@H](CC(C)C)NC(=O)[C@H](CCC(=O)O)NC(=O)[C@H](CCC(=O)O)NC(=O)[C@@H](NC(=O)[C@H](CCCCN)NC(=O)[C@H](CCCCN)NC(=O)[C@@H](NC(=O)[C@H](Cc1ccc(O)cc1)NC(=O)[C@H](CCC(=O)O)NC(=O)[C@H](CCC(=O)O)NC(=O)[C@@H](NC(=O)[C@H](CCCCN)NC(=O)[C@H](CCCCN)NC(=O)[C@H](CC(=O)O)NC(=O)[C@H](Cc1c[nH]c2ccccc12)NC(=O)[C@H](CCC(=O)O)NC(=O)[C@H](CCC(=O)O)NC(=O)[C@H](Cc1c[nH]c2ccccc12)NC(C)=O)[C@@H](C)CC)[C@@H](C)O)[C@@H](C)CC)C(=O)N[C@@H](CCCCN)C(=O)N[C@@H](CCCCN)C(=O)N[C@@H](CO)C(=O)N[C@@H](CCC(=O)O)C(=O)N[C@@H](CCC(=O)O)C(=O)N[C@@H](CO)C(=O)N[C@@H](CCC(N)=O)C(=O)N[C@@H](CCCCN)C(=O)N[C@@H](CCCCN)C(=O)N[C@@H](CC(N)=O)C(=O)N[C@@H](CCC(=O)O)C(=O)N[C@@H](CCC(=O)O)C(=O)N[C@@H](CCC(=O)O)C(=O)N[C@@H](CC(C)C)C(=O)N[C@@H](CCCCN)C(=O)N[C@@H](CCCCN)C(N)=O (Ac-WEEWDKKIEEYTKKIEELIKKSEESQKKNEEELKK-NH2), the Activity [7] was 4%, the EC50 [4] was 2.5 nM and the Tm [6] was 72.4 °C.
Work on CC[C@H](C)[C@H](NC(=O)[C@H](CC(C)C)NC(=O)[C@H](CCC(=O)O)NC(=O)[C@H](CCC(=O)O)NC(=O)[C@@H](NC(=O)[C@H](CCCCN)NC(=O)[C@H](CCCCN)NC(=O)[C@@H](NC(=O)[C@H](Cc1ccc(O)cc1)NC(=O)[C@H](CCC(=O)O)NC(=O)[C@H](CCC(=O)O)NC(=O)[C@@H](NC(=O)[C@H](CCCCN)NC(=O)[C@H](CCCCN)NC(=O)[C@H](CC(=O)O)NC(=O)[C@H](Cc1c[nH]c2ccccc12)NC(=O)[C@H](CCC(=O)O)NC(=O)[C@H](CCC(=O)O)NC(=O)[C@H](Cc1c[nH]c2ccccc12)NC(C)=O)[C@@H](C)CC)[C@@H](C)O)[C@@H](C)CC)C(=O)N[C@@H](CCCCN)C(=O)N[C@@H](CCCCN)C(=O)N[C@@H](CO)C(=O)N[C@@H](CCC(=O)O)C(=O)N[C@@H](CCC(=O)O)C(=O)N[C@@H](CCCNC(=N)N)C(=O)N[C@@H](CCC(N)=O)C(=O)N[C@@H](CCCCN)C(=O)N[C@@H](CCCCN)C(=O)N[C@@H](CC(N)=O)C(=O)N[C@@H](CCC(=O)O)C(=O)N[C@@H](CCC(=O)O)C(=O)N[C@@H](CCC(=O)O)C(=O)N[C@@H](CC(C)C)C(=O)N[C@@H](CCCCN)C(=O)N[C@@H](CCCCN)C(N)=O (Ac-WEEWDKKIEEYTKKIEELIKKSEERQKKNEEELKK-NH2) yielded an Activity [7] of 7.6%, an EC50 [4] of 2.5 nM and a Tm [6] of 71.5 °C.
CC[C@H](C)[C@H](NC(=O)[C@H](CC(C)C)NC(=O)[C@H](CCC(=O)O)NC(=O)[C@H](CCC(=O)O)NC(=O)[C@@H](NC(=O)[C@H](CCCCN)NC(=O)[C@H](CCCCN)NC(=O)[C@@H](NC(=O)[C@H](Cc1ccc(O)cc1)NC(=O)[C@H](CCC(=O)O)NC(=O)[C@H](CCC(=O)O)NC(=O)[C@@H](NC(=O)[C@H](CCCCN)NC(=O)[C@H](CCCCN)NC(=O)[C@H](CC(=O)O)NC(=O)[C@H](Cc1c[nH]c2ccccc12)NC(=O)[C@H](CCC(=O)O)NC(=O)[C@H](CCC(=O)O)NC(=O)[C@H](Cc1c[nH]c2ccccc12)NC(C)=O)[C@@H](C)CC)[C@@H](C)O)[C@@H](C)CC)C(=O)N[C@@H](CCCCN)C(=O)N[C@@H](CCCCN)C(=O)N[C@@H](CO)C(=O)N[C@@H](CCC(=O)O)C(=O)N[C@@H](CCC(=O)O)C(=O)N1CCC[C@H]1C(=O)N[C@@H](CCC(N)=O)C(=O)N[C@@H](CCCCN)C(=O)N[C@@H](CCCCN)C(=O)N[C@@H](CC(N)=O)C(=O)N[C@@H](CCC(=O)O)C(=O)N[C@@H](CCC(=O)O)C(=O)N[C@@H](CCC(=O)O)C(=O)N[C@@H](CC(C)C)C(=O)N[C@@H](CCCCN)C(=O)N[C@@H](CCCCN)C(N)=O (Ac-WEEWDKKIEEYTKKIEELIKKSEEPQKKNEEELKK-NH2) showed an Activity [7] of 0%, an EC50 [4] of 58 nM and a Tm [6] of 60.2 °C.
In the case of CC[C@H](C)[C@H](NC(=O)[C@H](CC(C)C)NC(=O)[C@H](CCC(=O)O)NC(=O)[C@H](CCC(=O)O)NC(=O)[C@@H](NC(=O)[C@H](CCCCN)NC(=O)[C@H](CCCCN)NC(=O)[C@@H](NC(=O)[C@H](Cc1ccc(O)cc1)NC(=O)[C@H](CCC(=O)O)NC(=O)[C@H](CCC(=O)O)NC(=O)[C@@H](NC(=O)[C@H](CCCCN)NC(=O)[C@H](CCCCN)NC(=O)[C@H](CC(=O)O)NC(=O)[C@H](Cc1c[nH]c2ccccc12)NC(=O)[C@H](CCC(=O)O)NC(=O)[C@H](CCC(=O)O)NC(=O)[C@H](Cc1c[nH]c2ccccc12)NC(C)=O)[C@@H](C)CC)[C@@H](C)O)[C@@H](C)CC)C(=O)N[C@@H](CCCCN)C(=O)N[C@@H](CCCCN)C(=O)N[C@@H](CO)C(=O)N[C@@H](CCC(=O)O)C(=O)N[C@@H](CCC(=O)O)C(=O)N[C@H](C(=O)N[C@@H](CCC(N)=O)C(=O)N[C@@H](CCCCN)C(=O)N[C@@H](CCCCN)C(=O)N[C@@H](CC(N)=O)C(=O)N[C@@H](CCC(=O)O)C(=O)N[C@@H](CCC(=O)O)C(=O)N[C@@H](CCC(=O)O)C(=O)N[C@@H](CC(C)C)C(=O)N[C@@H](CCCCN)C(=O)N[C@@H](CCCCN)C(N)=O)C(C)C (Ac-WEEWDKKIEEYTKKIEELIKKSEEVQKKNEEELKK-NH2), the Activity [7] is reported as 6.2%, the EC50 [4] is reported as 2.2 nM and the Tm [6] is reported as 77.7 °C.
CC[C@H](C)[C@H](NC(=O)[C@H](CC(C)C)NC(=O)[C@H](CCC(=O)O)NC(=O)[C@H](CCC(=O)O)NC(=O)[C@@H](NC(=O)[C@H](CCCCN)NC(=O)[C@H](CCCCN)NC(=O)[C@@H](NC(=O)[C@H](Cc1ccc(O)cc1)NC(=O)[C@H](CCC(=O)O)NC(=O)[C@H](CCC(=O)O)NC(=O)[C@@H](NC(=O)[C@H](CCCCN)NC(=O)[C@H](CCCCN)NC(=O)[C@H](CC(=O)O)NC(=O)[C@H](Cc1c[nH]c2ccccc12)NC(=O)[C@H](CCC(=O)O)NC(=O)[C@H](CCC(=O)O)NC(=O)[C@H](Cc1c[nH]c2ccccc12)NC(C)=O)[C@@H](C)CC)[C@@H](C)O)[C@@H](C)CC)C(=O)N[C@@H](CCCCN)C(=O)N[C@@H](CCCCN)C(=O)N[C@@H](CO)C(=O)N[C@@H](CCC(=O)O)C(=O)N[C@@H](CCC(=O)O)C(=O)N[C@@H](CC(C)C)C(=O)N[C@@H](CCC(N)=O)C(=O)N[C@@H](CCCCN)C(=O)N[C@@H](CCCCN)C(=O)N[C@@H](CC(N)=O)C(=O)N[C@@H](CCC(=O)O)C(=O)N[C@@H](CCC(=O)O)C(=O)N[C@@H](CCC(=O)O)C(=O)N[C@@H](CC(C)C)C(=O)N[C@@H](CCCCN)C(=O)N[C@@H](CCCCN)C(N)=O (Ac-WEEWDKKIEEYTKKIEELIKKSEELQKKNEEELKK-NH2) gave an Activity [7] of 8.2%, an EC50 [4] of 2.7 nM and a Tm [6] of 83.8 °C.
CC[C@H](C)[C@H](NC(=O)[C@H](CC(C)C)NC(=O)[C@H](CCC(=O)O)NC(=O)[C@H](CCC(=O)O)NC(=O)[C@@H](NC(=O)[C@H](CCCCN)NC(=O)[C@H](CCCCN)NC(=O)[C@@H](NC(=O)[C@H](Cc1ccc(O)cc1)NC(=O)[C@H](CCC(=O)O)NC(=O)[C@H](CCC(=O)O)NC(=O)[C@@H](NC(=O)[C@H](CCCCN)NC(=O)[C@H](CCCCN)NC(=O)[C@H](CC(=O)O)NC(=O)[C@H](Cc1c[nH]c2ccccc12)NC(=O)[C@H](CCC(=O)O)NC(=O)[C@H](CCC(=O)O)NC(=O)[C@H](Cc1c[nH]c2ccccc12)NC(C)=O)[C@@H](C)CC)[C@@H](C)O)[C@@H](C)CC)C(=O)N[C@@H](CCCCN)C(=O)N[C@@H](CCCCN)C(=O)N[C@@H](CO)C(=O)N[C@@H](CCC(=O)O)C(=O)N[C@@H](CCC(=O)O)C(=O)N[C@H](C(=O)N[C@@H](CCC(N)=O)C(=O)N[C@@H](CCCCN)C(=O)N[C@@H](CCCCN)C(=O)N[C@@H](CC(N)=O)C(=O)N[C@@H](CCC(=O)O)C(=O)N[C@@H](CCC(=O)O)C(=O)N[C@@H](CCC(=O)O)C(=O)N[C@@H](CC(C)C)C(=O)N[C@@H](CCCCN)C(=O)N[C@@H](CCCCN)C(N)=O)[C@@H](C)O (Ac-WEEWDKKIEEYTKKIEELIKKSEETQKKNEEELKK-NH2) gave an Activity [7] of 7.3%, an EC50 [4] of 3.2 nM and a Tm [6] of 76.7 °C.
